Patent publication US20240209028A1, “CNP COMPOUNDS” (priority 2022, published 2024)
Starred links: 1 amine or outer side, 2 acyl side, 3 side chain; linkers in the order of their positions; H or OH if unused. Positions of bridges follow the written chain, without caps; N, C: chain ends. Residues, ends and D or L forms follow the SMILES beside them. *: point of attachment. C18 diacid = O=C(O)CCCCCCCCCCCCCCCCC(=O)*; γGlu = O=C(O)[C@H](CCC(=O)[*:2])N[*:1]

Tests used:
[1] = target: neprilysin (NEP) (Homo sapiens, UniProt P08473); assay: In vitro neprilysin stability; conditions: recombinant human neprilysin (rhNEP), pH 7.4
Protocol: Therefore, an in vitro neprilysin stability assay was set up to test the neprilysin mediated degradation of selected CNP compounds.
Procedure: In short, the assay buffer consisted of PBS-buffer (pH 7.4, ThermoFisher Scientific) with a final concentration of 0.005% v/v tween 20 (Sigma-Aldrich). Recombinant human neprilysin (rhNEP; R&D Systems) and the CNP compounds were dissolved in assay buffer. Native CNP22 (0065, Chem. 1) was included as positive control on each day of incubation. Initially, the CNP compound (the final concentration was 1000 nM) was pre-incubated in assay buffer for 10 min at 37° C. The assay was started by adding either rhNEP (final concentration was 2 μg protein per mL) or assay buffer (adsorption experiment) and the incubation was conducted at 37° C. […] The mixture was centrifuged at 13000 rpm at 4° C. for 20 minutes. After centrifugation, one volume of supernatant was mixed with one volume of Milli-Q water.
Analysis by LCMS: The mixture was analysed by LCMS using an Acquity UPLC Peptide CSH C18 analytical column from Waters (130 Å, 1.7 μm, 1*50 mm) operated at 60° C. A gradient elution was conducted with a Nexera UHPLC system (Shimadzu) using mobile phase A (consisting of Milli-Q water with 0.1% formic acid) and mobile phase B (consisting of acetonitrile with 0.1% formic acid). The flow was 0.3 ml/min. A zenoTOF 7600 mass spectrometer (Sciex) was used as detector and operated in positive electrospray ionisation mode. Data was recorded in full scan mode (m/z 300-1700).
Calibration curves were prepared in assay buffer and treated as study samples. These samples were used for calculating the concentration of the relevant CNP compound in the in vitro samples. Quality control samples were included. For at least 75% of the standards and QCs, the deviation between nominal and calculated concentration was below 20%.
All incubations were conducted in duplicate. Data was reported as percent remaining at 90 min (based on calculated concentrations) compared to the average concentration in the 0.5-minute time point samples.

[2] = PK after i.v. and s.c. administration to Göttingen minipig; conditions: female, Göttingen, minipig, in vivo
Protocol: The purpose of this study was to investigate pharmacokinetic and pharmacodynamic properties after intravenous (i.v.) and subcutaneous (s.c.) administration to Gottingen Minipig and domestic LYD pig, and to estimate bioavailability after s.c. dosing. Quantitative plasma analysis of CNP and cGMP levels were performed as described in
Animals and dosing: The pharmacokinetic and pharmacodynamic studies in Gottingen Minipig or domestic LYD pig were conducted at CRO Minerva Imaging or Novo Nordisk A/S, respectively. CNP compounds were dosed to normal female 1) Gottingen minipigs 6-12 months of age with an average weight of 22 kg or 2) domestic LYD pigs 4-5 months of age with and average weight of 80 kg. At least one week prior to dosing, permanent central venous catheters were implanted for blood sampling and intravenous (i.v.) dosing. For subcutaneous (s.c.) dosing, the pigs were ultrasound scanned and the optimal injection area laterally on the neck marked by a permanent tattoo. An insulin pen (NovoPen Echo or NovoPen 4) and insulin needle (NovoFine 32G/4 mm or NovoTwist 32G/5 mm) were used for accurate deposition of the CNP formulations in the subcutaneous fat tissue with the needle perpendicular to the skin.
CNP compounds were formulated according to the principles in General Methods of Preparation—Method G and were either A) 8 mM sodium phosphate, 250 mM glycerol, pH 6.5, B) 5 mM sodium acetate, 250 mM glycerol, pH 4.0, C) 5 mM sodium acetate, 240 mM propylene glycol, pH=4.0, D) 8 mM sodium phosphate, 250 mM glycerol, pH 7.5 or E) 20 mM sodium phosphate, 223 mM propylene glycol, pH 6.0.
Intravenously, the CNP compounds were dosed at 30-60 nmol/kg to Minipig and 15-43 nmol/kg to domestic pig using formulations A-E. Subcutaneously, the CNP compounds were dosed at 55-62 nmol/kg to Minipig and 20-30 nmol/kg to domestic pig using formulations A-D.
Sampling: Blood samples of approximately 1 mL were collected pre dose and up to 14 days post dose into EDTA-coated tubes (8 mM) for cGMP and CNP compound analysis by LC-MS. In few instances, cGMP was only analysed up to 48 hours post dose after intravenous dosing in domestic LYD pig. The blood samples were kept on wet ice for maximum 30 minutes until centrifugation for 10 minutes at 4° C. and minimum 1500G, and the plasma samples were stored at −20° C. until analysis.
Plasma concentration-time profiles were analyzed by non-compartmental PK analysis using Phoenix WinNonlin 8.1, Pharsight Inc., Mountain View, CA, USA. Calculation of the area under the plasma concentration-time curve (AUC) was based on the “linear up log down” method, and uniform weighting was used for estimation of the terminal rate constant (λz). S.c. bioavailability (F) was calculated as the dose-normalized AUC (AUC/dose) after s.c. administration divided by the AUC/dose after i.v. administration. […]

[3] = Accelerated chemical stability (RP-UPLC recovery and LCMS degradation pattern, 37° C.); type: physicochemical; set-up: Isomers TZ / Isomers 2 W / Loss of 18 amu TZ / Loss of 18 amu 2 W / Fragments TZ / Fragments 2 W / Fragments 1 W / Fragments 3 W / Fragments 4 W / Fragments 5 W / Fragments 6 W / Others 1 W / Others 3 W / Others 4 W / Others 5 W / Others 6 W / Isomers 1 W / Isomers 3 W / Isomers 4 W / Isomers 5 W / Isomers 6 W / Loss of 18 amu 1 W / Loss of 18 amu 3 W / Loss of 18 amu 4 W / Loss of 18 amu 5 W / Loss of 18 amu 6 W: unit not given here; conditions: LCMS, 5 mM sodium acetate, 250 mM glycerol, pH 4
Protocol: In order to determine the chemical stability of CNP compounds in formulation, samples of CNP compounds in buffer were exposed to accelerated chemical degradation by heating. The stability of a given peptide was assessed by measuring recovery of intact peptide by quantification by RP-UPLC. To assess the chemical degradation pattern samples were also analysed by LC-MS.
Sample preparation: Samples for the 2 week study were prepared according to the principles described in Example 5.
Samples for the 6 week study were prepared by dissolving lyophilized peptide in buffer (8 mM phosphate, 250 mM glycerol, pH 7.4) to a nominal peptide concentration of 5000 nmol/ml followed by pH adjustment with 0.1 N HCl to pH 6.5.
Incubation: For the 2 week study a time-zero (TZ) sample was pulled and stored at −18° C. and the remaining volume was incubated at 37° C. Samples were pulled and stored at −18° C. after 2 weeks of incubation. Frozen samples were thawed, diluted to about 200 nmol/mL and the extent of chemical degradation was determined using LCMS as described.
For the 6 week study a time-zero (TZ) sample was pulled and stored at −18° C. and the remaining volume was incubated at 37° C. Samples were pulled on a weekly basis and stored at −18° C. until the last sampling time point at 6 weeks. Frozen samples were thawed, diluted to about 200 nmol/mL and the extent of chemical degradation was determined using RP-UPLC and LCMS as described.
Analysis of peptide recovery by RP-UPLC: The RP-UPLC method was performed on a Waters ACQUITY H-CLASS UPLC system fitted with a PDA detector. Separation was carried out on an ACQUITY UPLC BEH C8 Column (130 Å, 1.7 μm, 2.1 mm×150 mm) operating at a column temperature of 50° C. with eluent A (19.59 mM NH4H2PO4 41.71 mM (NH4)2HPO4, pH 6.5 and MeCN 9:1 v:v) and eluent B (80% MeCN in water). UV-detection was carried out at 214 nm. The analysis was performed by injection of 3 μL of sample onto the column which was eluted with a 1-step linear gradient of eluents A and B from 27 to 30% B over 20 minutes followed by a wash at 95% B over 2 minutes followed by a re-equilibration phase for 7 minutes at a constant flow rate of 0.3 mL/min. This yielded an analysis time of 30 minutes per sample. The area of the peak corresponding to intact CNP compound was given on a percentage scale relative to the total peptide peak area.
Analysis of chemical degradation patterns by LCMS: Samples were analysed on a […] UPLC from Thermo Scientific, using a Waters Acquity C18 reversed-phase column, 300 Å, […] particles 1 mm×150 mm. The compounds were separated by a linear gradient of solvent B from 5% to 55% over 48 minutes, using solvent A: water, 0.1% formic acid with 0.02% TFA and solvent B: acetonitrile, 0.1% formic acid with 0.02% TFA. Mass spectra were acquired by a Q Exactive Plus hybrid Quadrupole-Orbitrap mass spectrometer, BioPharma option (Thermo Scientific) interfaced with H-ESI II ion source. Data acquisitions were performed with a m/z 500 to 2000 scan range and a resolution of 30000.
The data list was aggregated into a summed table of the compounds. The table headers were defined as follows: […]
Results: The results from LCMS analysis of a 2 week accelerated degradation study on several CNP compounds of the present invention are summarised in Table 12. The results from RP-UPLC and LCMS analysis of a 6 week accelerated degradation study on CNP compound 9482 (Chem. 137) is summarised in Table 13 and Table 14 respectively.

Chain of neprilysin (NEP) (P08473 whole entry): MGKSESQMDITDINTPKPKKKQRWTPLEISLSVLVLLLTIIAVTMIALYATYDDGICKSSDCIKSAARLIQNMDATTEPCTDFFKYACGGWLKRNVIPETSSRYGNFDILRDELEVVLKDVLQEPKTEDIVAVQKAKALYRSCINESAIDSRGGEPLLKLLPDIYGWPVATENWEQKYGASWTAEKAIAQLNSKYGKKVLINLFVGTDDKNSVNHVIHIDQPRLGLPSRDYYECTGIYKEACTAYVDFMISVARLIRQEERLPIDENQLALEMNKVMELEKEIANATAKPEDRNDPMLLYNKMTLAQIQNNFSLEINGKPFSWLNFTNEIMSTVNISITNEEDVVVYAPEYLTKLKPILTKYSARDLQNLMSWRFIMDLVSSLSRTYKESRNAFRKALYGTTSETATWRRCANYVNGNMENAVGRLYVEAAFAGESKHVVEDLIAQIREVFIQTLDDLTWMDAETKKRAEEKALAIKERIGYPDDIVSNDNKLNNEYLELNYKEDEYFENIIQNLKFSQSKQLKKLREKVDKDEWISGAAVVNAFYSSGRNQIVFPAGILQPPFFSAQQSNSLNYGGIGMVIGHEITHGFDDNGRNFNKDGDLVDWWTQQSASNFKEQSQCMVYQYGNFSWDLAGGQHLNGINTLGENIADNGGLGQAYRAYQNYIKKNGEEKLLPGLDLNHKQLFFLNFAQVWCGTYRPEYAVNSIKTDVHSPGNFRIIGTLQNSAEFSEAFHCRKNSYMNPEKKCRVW

CC[C@H](C)[C@@H]1NC(=O)[C@H](CCCNC(=N)N)NC(=O)[C@H](CCC(=O)O)NC(=O)[C@H](CC(C)C)NC(=O)[C@@H]2CCCN2C(=O)[C@H](CC(C)C)NC(=O)CNC(=O)[C@H](Cc2ccccc2)NC(=O)[C@@H](NC(=O)CNC(=O)[C@H](CO)NC(=O)[C@H](CO)NC(=O)[C@H](CC(C)C)NC(=O)CNC(=O)[C@H](CCCCN)NC(=O)[C@H](CCCCN)NC(=O)[C@H](CCC(N)=O)NC(=O)[C@H](C)NC(=O)CNC(=O)[C@H](CCCCN)NC(=O)[C@H](Cc2ccc(O)cc2)NC(=O)[C@H](CCCCN)NC(=O)[C@H](CCCNC(=N)N)NC(=O)[C@H](C)NC(=O)[C@H](CCC(N)=O)NC(=O)[C@@H]2CCCN2C(=O)[C@H](Cc2c[nH]cn2)NC(=O)[C@H](CCC(=O)O)NC(=O)[C@H](CCC(N)=O)NC(=O)CC[C@H](NC(=O)CC[C@H](NC(=O)CC[C@H](NC(=O)CC[C@H](NC(=O)CCCCCCCCCCCCCCCCC(=O)O)C(=O)O)C(=O)O)C(=O)O)C(=O)O)CSSC[C@@H](C(=O)O)NC(=O)CNC(=O)[C@H](CC(C)C)NC(=O)CNC(=O)[C@H](CO)NC(=O)[C@H](CC(C)C)NC(=O)[C@H](CO)NC(=O)CNC1=O [Compound 9483] ({C18 diacid-γGlu-γGlu-γGlu-γGlu}-QEHPQARKYKGAQKKGLSSGCFGLPLERIGSLSGLGC-OH; disulfide 21-37)
remaining at 1.5 h, 1000 nM [1]: 106% | clearance ([2]; iv): 1.04 mL/h/kg | half-life ([2]; iv): 88 h | bioavailability ([2]; sc): 44% | half-life ([2]; sc): 75 h | Fragments 2 W ([3]; 2 weeks at 37° C.): 0 | Isomers 2 W ([3]; 2 weeks at 37° C.): 0 | Loss of 18 amu 2 W ([3]; 2 weeks at 37° C.): 0 | Others 2 W ([3]; 2 weeks at 37° C.): 0.6% | Fragments TZ ([3]; time zero): 0 | Isomers TZ ([3]; time zero): 0 | Loss of 18 amu TZ ([3]; time zero): 0 | Others TZ ([3]; time zero): 0.2%
